Reference: PubChem BioAssay AID248 (DTP/NCI, 2004)
“And” between values parts separate entries of the source, which are not always exact repeats. Equal entries are not always repeated. Inconclusive results and toxic doses are left out. No stated cut-off is given here; in the data, active means T/C of 150% or more; inactive means T/C below 125%.

Tested on: L1210 leukemia ip in BDF1 mice, survival T/C
Test: NCI In Vivo Anticancer Drug Screen. Data for tumor model L1210 Leukemia (intraperitoneal) in B6D2F1 (BDF1) mice
Settings: endpoint: mean survival time, higher = longer survival
Procedure, shortened: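 Survival endpoint. Drug-treated group vs vehicle group, expressed as T divided by C. Tumor passaged by transplantation.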

[1] = dose: 10.0 mg/kg/injection, schedule: Q01DX001 (ip), vehicle: saline
[2] = dose: 20.0 mg/kg/injection, schedule: Q01DX001 (ip), vehicle: saline
[3] = dose: 40.0 mg/kg/injection, schedule: Q01DX001 (ip), vehicle: saline
[4] = dose: 100.0 mg/kg/injection, schedule: Q01DX009 (ip), vehicle: saline with Tween-80
[5] = dose: 200.0 mg/kg/injection, schedule: Q01DX009 (ip), vehicle: saline with Tween-80
[6] = dose: 400.0 mg/kg/injection, schedule: Q01DX009 (ip), vehicle: saline with Tween-80
[7] = dose: 100.0 mg/kg/injection, schedule: Q01DX009 (ip), vehicle: Klucel (hydroxypropylcellulose) (HPC)
[8] = dose: 200.0 mg/kg/injection, schedule: Q01DX009 (ip), vehicle: Klucel (hydroxypropylcellulose) (HPC)
[9] = dose: 400.0 mg/kg/injection, schedule: Q01DX009 (ip), vehicle: Klucel (hydroxypropylcellulose) (HPC)
[10] = dose: 100.0 mg/kg/injection, schedule: Q04DX003 (ip), vehicle: Klucel (hydroxypropylcellulose) (HPC)
[11] = dose: 200.0 mg/kg/injection, schedule: Q04DX003 (ip), vehicle: Klucel (hydroxypropylcellulose) (HPC)
[12] = dose: 400.0 mg/kg/injection, schedule: Q04DX003 (ip), vehicle: Klucel (hydroxypropylcellulose) (HPC)
[13] = dose: 12.5 mg/kg/injection, schedule: Q01DX009 (ip), vehicle: saline
[14] = dose: 25.0 mg/kg/injection, schedule: Q01DX009 (ip), vehicle: saline
[15] = dose: 100.0 mg/kg/injection, schedule: Q01DX001 (ip), vehicle: saline with Tween-80
[16] = dose: 100.0 mg/kg/injection, schedule: Q01DX001 (ip), vehicle: carboxymethylcellulose (CMC)
[17] = dose: 200.0 mg/kg/injection, schedule: Q01DX001 (ip), vehicle: carboxymethylcellulose (CMC)
[18] = dose: 400.0 mg/kg/injection, schedule: Q01DX001 (ip), vehicle: carboxymethylcellulose (CMC)

Measured: T/C

CCCCCCCCCCCCCCCCC1=NCCN1
inactive: dose: 5.0 mg/kg/injection, schedule: Q01DX009 (ip), vehicle: saline 91 % of control | [1] 94 % of control | dose: 10.0 mg/kg/injection, schedule: Q01DX009 (ip), vehicle: saline 91 % of control | dose: 10.0 mg/kg/injection, schedule: Q04DX003 (ip), vehicle: saline 94 % of control | [2] 97 % of control | dose: 20.0 mg/kg/injection, schedule: Q01DX009 (ip), vehicle: saline 88 % of control | dose: 20.0 mg/kg/injection, schedule: Q04DX003 (ip), vehicle: saline 93 % of control and 90 % of control | [3] 101 % of control | dose: 40.0 mg/kg/injection, schedule: Q04DX003 (ip), vehicle: saline 95 % of control and 88 % of control

O=[N+]([O-])c1cccc(OCCCc2ccccc2)c1
inactive: [4] 98 % of control | [5] 102 % of control | [6] 112 % of control

CC(C)(C)c1cc(/C=N/NC(=O)COCC(=O)N/N=C/c2cc(C(C)(C)C)c(O)c(C(C)(C)C)c2)cc(C(C)(C)C)c1O
inactive: [7] 95 % of control | [8] 103 % of control | [9] 92 % of control

S=C(S)N1CCC(CC2CCN(C(=S)S)CC2)CC1
inactive: [4] 98 % of control | dose: 100.0 mg/kg/injection, schedule: Q04DX003 (ip), vehicle: saline with Tween-80 102 % of control | [5] 93 % of control | dose: 200.0 mg/kg/injection, schedule: Q04DX003 (ip), vehicle: saline with Tween-80 96 % of control | dose: 400.0 mg/kg/injection, schedule: Q04DX003 (ip), vehicle: saline with Tween-80 86 % of control

Cc1cc(C)c(CC(C)(CO)CO)cc1CC(C)(CO)CO
inactive: [7] 93 % of control | [8] 87 % of control | dose: 300.0 mg/kg/injection, schedule: Q01DX009 (ip), vehicle: Klucel (hydroxypropylcellulose) (HPC) 106 % of control

CCOC(=O)C1CCCCC1=O (configuration not stated)
inactive: [7] 88 % of control | [10] 93 % of control | [8] 97 % of control | [11] 98 % of control | [9] 111 % of control | [12] 96 % of control

COc1cc(C)c(C(=O)Oc2cc(C)c(C(=O)O)c(O)c2C)c(OC)c1C
inactive: dose: 6.25 mg/kg/injection, schedule: Q01DX009 (ip), vehicle: saline 95 % of control | [13] 98 % of control | [14] 97 % of control and 98 % of control | dose: 37.5 mg/kg/injection, schedule: Q01DX Z (ip), vehicle: saline 93 % of control | dose: 75.0 mg/kg/injection, schedule: Q01DX Z (ip), vehicle: saline 98 % of control | dose: 100.0 mg/kg/injection, schedule: Q01DX Z (ip), vehicle: saline 96 % of control | dose: 150.0 mg/kg/injection, schedule: Q01DX Z (ip), vehicle: saline 93 % of control | dose: 300.0 mg/kg/injection, schedule: Q01DX Z (ip), vehicle: saline 98 % of control

N#CC(/C=C/c1ccco1)Nc1ccccc1C(N)=O (configuration not stated)
inactive: [7] 121 % of control | [10] 93 % of control | [8] 121 % of control | [11] 94 % of control | [12] 100 % of control

c1ccc([P+](c2ccccc2)(c2ccccc2)C2CC2)cc1
inactive: dose: 5.0 mg/kg/injection, schedule: Q01DX001 (ip), vehicle: saline 93 % of control | [1] 101 % of control | [2] 104 % of control | [3] 104 % of control

OC(c1cc2ccc(C(F)(F)F)cc2c2cc(C(F)(F)F)ccc12)C1CCCCN1 (configuration not stated)
inactive: [13] 93 % of control | [14] 103 % of control | dose: 50.0 mg/kg/injection, schedule: Q01DX009 (ip), vehicle: saline 108 % of control

C=C1CC(Cc2ccccc2)OC1=O (configuration not stated)
inactive: [15] 94 % of control

COc1cc(-c2cc(-c3ccccc3)c3cc(Cl)ccc3n2)cc(OC)c1OC
inactive: dose: 50.0 mg/kg/injection, schedule: Q01DX009 (ip), vehicle: Klucel (hydroxypropylcellulose) (HPC) 90 % of control | [7] 88 % of control | [8] 93 % of control

CNc1cc(Cl)c(Cl)cc1[N+](=O)[O-]
inactive: dose: 100.0 mg/kg/injection, schedule: Q01DX009 (ip), vehicle: saline sonified 98 % of control | [10] 95 % of control | dose: 200.0 mg/kg/injection, schedule: Q01DX009 (ip), vehicle: saline sonified 98 % of control | [11] 98 % of control | dose: 400.0 mg/kg/injection, schedule: Q01DX009 (ip), vehicle: saline sonified 98 % of control | [12] 104 % of control

Nc1cc2c(cc1Cl)-c1ccc([N+](=O)[O-])cc1/C2=N\O
inactive: [16] 104 % of control | [17] 116 % of control | [18] 104 % of control

O=c1ccccn1CC1(c2ccccc2)OCCO1
inactive: [7] 98 % of control | [10] 102 % of control | [8] 104 % of control | [11] 96 % of control | [9] 100 % of control | [12] 94 % of control

CCCCCCCCCCCCCCCC(=O)N(CC#N)CC#N
inactive: [10] 91 % of control | [11] 92 % of control | [12] 89 % of control

CN(C)c1ccc(C(=O)CCCN2CCC(O)(c3ccc(C(F)(F)F)cc3)CC2)cc1
inactive: dose: 50.0 mg/kg/injection, schedule: Q01DX001 (ip), vehicle: Klucel (hydroxypropylcellulose) (HPC) 97 % of control | dose: 100.0 mg/kg/injection, schedule: Q01DX001 (ip), vehicle: Klucel (hydroxypropylcellulose) (HPC) 96 % of control | dose: 200.0 mg/kg/injection, schedule: Q01DX001 (ip), vehicle: Klucel (hydroxypropylcellulose) (HPC) 105 % of control

S=c1[nH]c2[nH]cnc(=S)c2[nH]1
inactive: dose: 100.0 mg/kg/injection, schedule: Q01DX001 (ip), vehicle: saline 97 % of control | dose: 200.0 mg/kg/injection, schedule: Q01DX001 (ip), vehicle: saline 97 % of control

O=S(=O)(CS(=O)(=O)Oc1ccccc1)Oc1ccccc1
inactive: [16] 93 % of control | [17] 102 % of control | [18] 93 % of control

O=[N+]([O-])c1ccc(/C=C/c2ncccn2)o1
inactive: [10] 97 % of control | [11] 103 % of control | [12] 97 % of control

Nc1ncnc2c1ccn2C1CCCC1
inactive: dose: 25.0 mg/kg/injection, schedule: Q01DX001 (ip), vehicle: carboxymethylcellulose (CMC) 100 % of control | dose: 50.0 mg/kg/injection, schedule: Q01DX001 (ip), vehicle: carboxymethylcellulose (CMC) 111 % of control | [16] 105 % of control

Cc1cn(C2CCCO2)c(=O)nc1NO (configuration not stated)
inactive: [16] 104 % of control | [17] 95 % of control | [18] 98 % of control

CCOc1ccccc1NC(=O)c1cccc(F)c1
inactive: [4] 101 % of control | [5] 104 % of control | [6] 101 % of control

COc1ccc([N+](=O)[O-])cc1NS(=O)(=O)c1ccc(Cl)cc1
inactive: [7] 102 % of control | [8] 98 % of control | [9] 93 % of control

NNC(=O)C1CCN1C(c1ccccc1)c1ccccc1 (configuration not stated)
inactive: dose: 25.0 mg/kg/injection, schedule: Q01DX001 (ip), vehicle: saline with Tween-80 101 % of control | dose: 50.0 mg/kg/injection, schedule: Q01DX001 (ip), vehicle: saline with Tween-80 101 % of control | [15] 97 % of control
